Laboratory results as given in US8501446B2 (Vertex Pharmaceuticals Incorporated, priority 2004, dated 2013).
pKi: −log10 of the molar value.

Tests used:
Type in all cases: biochemical
JAK3 = target: T1, JAK3 (Homo sapiens, UniProt P52333); assay: JAK3 inhibition assay (standard radioactive enzyme assay); settings: average Ki if more than one value determined
T1 sequence (P52333 1-1124): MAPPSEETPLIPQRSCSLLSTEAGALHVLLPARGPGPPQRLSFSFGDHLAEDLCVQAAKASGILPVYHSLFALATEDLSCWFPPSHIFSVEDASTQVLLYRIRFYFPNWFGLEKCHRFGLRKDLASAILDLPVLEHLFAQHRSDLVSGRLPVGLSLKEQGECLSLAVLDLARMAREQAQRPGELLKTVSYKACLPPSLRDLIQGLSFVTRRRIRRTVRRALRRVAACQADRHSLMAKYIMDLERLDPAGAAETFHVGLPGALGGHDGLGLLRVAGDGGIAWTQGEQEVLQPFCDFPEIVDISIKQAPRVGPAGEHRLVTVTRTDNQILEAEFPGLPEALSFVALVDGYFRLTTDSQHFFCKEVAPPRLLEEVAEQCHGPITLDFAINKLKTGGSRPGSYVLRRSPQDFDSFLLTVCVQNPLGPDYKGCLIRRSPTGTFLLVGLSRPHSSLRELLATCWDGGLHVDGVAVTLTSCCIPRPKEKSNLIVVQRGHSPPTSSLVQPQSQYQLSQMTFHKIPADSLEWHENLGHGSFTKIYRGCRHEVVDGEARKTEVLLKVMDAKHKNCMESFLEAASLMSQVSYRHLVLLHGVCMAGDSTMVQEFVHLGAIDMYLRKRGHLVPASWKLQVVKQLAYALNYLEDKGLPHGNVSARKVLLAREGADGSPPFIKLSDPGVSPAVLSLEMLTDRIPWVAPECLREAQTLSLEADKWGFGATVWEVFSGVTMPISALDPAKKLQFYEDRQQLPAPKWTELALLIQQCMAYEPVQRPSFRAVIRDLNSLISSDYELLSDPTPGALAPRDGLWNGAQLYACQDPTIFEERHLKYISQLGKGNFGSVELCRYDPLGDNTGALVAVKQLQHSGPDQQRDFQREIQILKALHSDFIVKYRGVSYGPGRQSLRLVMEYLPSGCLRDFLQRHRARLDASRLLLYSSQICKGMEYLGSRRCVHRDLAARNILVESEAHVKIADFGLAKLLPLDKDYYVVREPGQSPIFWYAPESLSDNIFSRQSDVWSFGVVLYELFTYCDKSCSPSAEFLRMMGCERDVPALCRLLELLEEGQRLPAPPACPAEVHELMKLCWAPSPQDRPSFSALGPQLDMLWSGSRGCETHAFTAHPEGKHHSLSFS
Procedure: (§1) Compounds were screened for their ability to inhibit JAK3 using a standard radioactive enzyme assay. 1.5 μL/well of a DMSO stock containing serial dilutions of a compound of the present invention (concentrations ranging from 667 μM to 46 nM) was placed in a 96 well polycarbonate plate. 50 μL per well of kinase buffer (100 mM HEPES (pH 7.4), 10 mM MgCl2, 25 mM NaCl, 1 mM DTT, and 0.01% bovine serum albumin (BSA)) containing 2 μM poly(Glu)4Tyr and 10 μM ATP was also added to the plate. To initiate the reaction, 50 μL kinase buffer containing 2 nM JAK3 enzyme was added. Final ATP concentration was 5 μM [γ-^33P] ATP (200 μCi ^33P ATP/μmol ATP (Perkin Elmer, Cambridge, Mass.). After 20 minutes at room temperature (25° C.), the reaction was stopped by adding 50 μL 20% trichloroacetic acid (TCA)/0.4 mM ATP to each well. The entire content of each well was then transferred to a 96 well glass fiber filter plate using a TomTek Cell Harvester. After washing, 60 μL scintillation fluid was added and ^33P incorporation detected using a Perkin Elmer TopCount. After removing mean background values for all of the data points the data was fit using Prism software to obtain a Ki(app). Inhibition of JAK2 was measured as above except that final poly(Glu)4Tyr concentration was 15 μM and final ATP concentration was 12 μM.

JAK2 = JAK2 (Homo sapiens, UniProt O60674); assay: JAK2 inhibition assay (radioactive enzyme assay, as for JAK3); settings: average Ki if more than one value determined
Procedure: as §1

ROCK I (AA 6-553) = target: T2, ROCK I (AA 6-553) (Homo sapiens, UniProt Q13464); assay: ROCK inhibition assay, standard coupled enzyme system ("Enzyme"); settings: enzyme-linked assay
T2 construct: ROCK I (AA 6-553)
Procedure: Compounds were screened for their ability to inhibit ROCK I (AA 6-553) activity using a standard coupled enzyme system (Fox et al. (1998) Protein Sci. 7, 2249). Reactions were carried out in a solution containing 100 mM HEPES (pH 7.5), 10 mM MgCl2, 25 mM NaCl, 2 mM DTT and 1.5% DMSO. Final substrate concentrations in the assay were 45 μM ATP (Sigma Chemicals, St Louis, Mo.) and 200 μM peptide (American Peptide, Sunnyvale, Calif.). Reactions were carried out at 30° C. and 45 nM ROCK L. Final concentrations of the components of the coupled enzyme system were 2.5 mM phosphoenolpyruvate, 350 μM NADH, 30 μg/ml pyruvate kinase and 10 μg/ml lactate dehydrogenase.

[1] = target: T3, full length Aurora-A (AA 1-403) (Homo sapiens, UniProt O14965); assay: Aurora-A inhibition assay, standard coupled enzyme system; settings: average Ki if more than one value determined
T3 construct: full length Aurora-A (AA 1-403)
T3 sequence (O14965 1-403): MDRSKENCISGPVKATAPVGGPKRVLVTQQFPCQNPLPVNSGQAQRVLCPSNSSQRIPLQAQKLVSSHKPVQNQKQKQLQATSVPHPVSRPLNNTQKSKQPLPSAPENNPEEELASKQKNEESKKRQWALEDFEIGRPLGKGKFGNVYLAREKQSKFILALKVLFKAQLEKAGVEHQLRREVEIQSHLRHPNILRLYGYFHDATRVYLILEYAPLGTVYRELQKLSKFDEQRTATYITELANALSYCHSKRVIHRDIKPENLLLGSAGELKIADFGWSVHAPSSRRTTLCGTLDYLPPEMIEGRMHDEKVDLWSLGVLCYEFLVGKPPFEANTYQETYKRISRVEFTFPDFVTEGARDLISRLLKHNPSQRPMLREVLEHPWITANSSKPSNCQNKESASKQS
Procedure: Compounds were screened for their ability to inhibit full length Aurora-A (AA 1-403) activity using a standard coupled enzyme system (Fox et al., Protein Sci. 7, pp. 2249 (1998)). Reactions were carried out in a solution containing 100 mM HEPES (pH 7.5), 10 mM MgCl2, 25 mM NaCl, 300 μM NADH, 1 mM DTT and 3% DMSO. Final substrate concentrations in the assay were 200 μM ATP (Sigma Chemicals, St Louis, Mo.) and 800 μM peptide (LRRASLG, American Peptide, Sunnyvale, Calif.). Reactions were carried out at 30° C. and 35 nM Aurora-A. Final concentrations of the components of the coupled enzyme system were 2.5 mM phosphoenolpyruvate, 200 μM NADH, 60 μg/ml pyruvate kinase and 20 μg/ml lactate dehydrogenase.
An assay stock buffer solution was prepared containing all of the reagents listed above with the exception of ATP and the test compound of interest. The assay stock buffer solution (60 μl) was incubated in a 96 well plate with 2 μl of the test compound of interest at final concentrations spanning 0.002 μM to 30 μM at 30° C. for 10 min. Typically, a 12 point titration was conducted by preparing serial dilutions (from 1 mM compound stocks) with DMSO of the test compounds in daughter plates. The reaction was initiated by the addition of 5 μl of ATP (final concentration 200 μM). Rates of reaction were obtained using a Molecular Devices Spectramax plate reader (Sunnyvale, Calif.) over 10 min at 30° C. The Ki values were determined from the rate data as a function of inhibitor concentration using computerized nonlinear regression (Prism 3.0, Graphpad Software, San Diego, Calif.). Aurora-C activity was screened in a similar manner using Aurora-C protein. Aurora-B activity was screened using a radioactive assay, such as described in Examples 1 and 2, but using Aurora-B protein.

T2 sequence (Q13464 6-553, species assumed): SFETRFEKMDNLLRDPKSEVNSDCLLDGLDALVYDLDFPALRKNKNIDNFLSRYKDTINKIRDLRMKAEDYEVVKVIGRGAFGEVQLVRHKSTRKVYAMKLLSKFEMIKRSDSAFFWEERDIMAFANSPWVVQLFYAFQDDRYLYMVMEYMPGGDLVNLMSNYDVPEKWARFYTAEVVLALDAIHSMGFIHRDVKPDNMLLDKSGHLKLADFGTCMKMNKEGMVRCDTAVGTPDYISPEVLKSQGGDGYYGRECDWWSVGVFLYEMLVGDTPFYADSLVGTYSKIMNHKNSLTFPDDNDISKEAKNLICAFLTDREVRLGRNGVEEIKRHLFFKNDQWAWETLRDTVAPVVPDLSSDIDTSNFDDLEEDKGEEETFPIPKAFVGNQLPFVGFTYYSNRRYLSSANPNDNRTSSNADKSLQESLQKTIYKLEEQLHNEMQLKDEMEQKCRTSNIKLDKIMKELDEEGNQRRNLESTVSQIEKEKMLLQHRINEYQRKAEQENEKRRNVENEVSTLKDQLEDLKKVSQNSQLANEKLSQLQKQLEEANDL
Sequence of JAK2 (O60674 whole entry, species assumed): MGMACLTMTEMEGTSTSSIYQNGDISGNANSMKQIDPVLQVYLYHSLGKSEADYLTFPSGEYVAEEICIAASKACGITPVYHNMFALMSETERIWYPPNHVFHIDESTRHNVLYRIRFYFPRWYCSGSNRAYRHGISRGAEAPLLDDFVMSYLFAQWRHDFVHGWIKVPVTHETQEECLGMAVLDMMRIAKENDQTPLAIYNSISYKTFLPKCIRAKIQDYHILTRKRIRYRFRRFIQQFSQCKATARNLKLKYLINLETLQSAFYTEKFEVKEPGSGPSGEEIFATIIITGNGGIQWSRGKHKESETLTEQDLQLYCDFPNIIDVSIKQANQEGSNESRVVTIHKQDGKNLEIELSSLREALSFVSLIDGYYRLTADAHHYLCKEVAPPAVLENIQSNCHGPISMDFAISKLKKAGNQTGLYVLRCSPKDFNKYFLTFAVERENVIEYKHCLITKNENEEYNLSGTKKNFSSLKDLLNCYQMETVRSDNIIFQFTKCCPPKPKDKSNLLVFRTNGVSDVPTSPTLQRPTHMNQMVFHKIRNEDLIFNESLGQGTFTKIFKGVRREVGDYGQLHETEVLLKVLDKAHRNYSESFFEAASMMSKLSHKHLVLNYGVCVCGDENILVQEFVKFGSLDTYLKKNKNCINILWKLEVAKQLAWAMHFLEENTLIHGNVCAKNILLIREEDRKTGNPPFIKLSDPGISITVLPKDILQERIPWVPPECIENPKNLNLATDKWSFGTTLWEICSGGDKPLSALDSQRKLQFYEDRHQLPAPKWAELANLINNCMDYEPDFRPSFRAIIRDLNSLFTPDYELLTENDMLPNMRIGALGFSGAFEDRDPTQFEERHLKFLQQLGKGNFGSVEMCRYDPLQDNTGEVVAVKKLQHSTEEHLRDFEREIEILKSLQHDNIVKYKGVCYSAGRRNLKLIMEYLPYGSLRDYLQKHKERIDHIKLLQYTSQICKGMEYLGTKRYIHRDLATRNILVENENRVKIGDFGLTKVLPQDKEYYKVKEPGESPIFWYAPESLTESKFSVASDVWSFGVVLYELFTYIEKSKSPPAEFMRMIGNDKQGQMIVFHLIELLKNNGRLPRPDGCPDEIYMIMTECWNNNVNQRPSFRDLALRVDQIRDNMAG

| Compound | pKi (JAK3) | pKi (JAK2) | pKi (ROCK I (AA 6-553)) | pKi [1] |
| --- | --- | --- | --- | --- |
| CC(=O)N1[C@H](C)CN(c2cccc(-c3c[nH]c4ncc(C(=O)N5CCCCCC5)cc34)n2)C[C@@H]1C [Compound 55] | 5.30 to 6.30 | 5.30 to 6.30 |  |  |
| CC(=O)N1[C@H](C)CN(c2cccc(-c3c[nH]c4ncc(OCCCN5CCOCC5)cc34)n2)C[C@@H]1C [Compound 208] | > 6.30 |  | 5.30 to 6.30 |  |
| C=C(C)COc1cnc2[nH]cc(-c3cccc(N4C[C@@H](C)N(C(C)=O)[C@@H](C)C4)n3)c2c1 [Compound 207] | > 6.30 |  | 5.30 to 6.30 |  |
| N#Cc1ccc(-c2c[nH]c3ncc(Cl)cc23)cc1 [Compound 176] | > 6.30 | > 6.30 |  |  |
| CC(=O)N1[C@H](C)CN(c2cccc(-c3c[nH]c4ncc(OC(C)C)cc34)n2)C[C@@H]1C [Compound 206] | > 6.30 |  | 5.30 to 6.30 |  |
| FC(F)(F)c1cc(NCc2ccccc2)cc(-c2c[nH]c3ncc(Cl)cc23)c1 [Compound 187] | > 6.30 | 5.30 to 6.30 |  |  |
| O=C(O)c1ccc(-c2c[nH]c3ncc(Cl)cc23)c(F)c1 [Compound 188] | 5.30 to 6.30 | < 5.30 |  |  |
| CN1CCC(CNc2nc(-c3c[nH]c4ncc(Cl)cc34)ncc2F)CC1 [Compound 372] |  |  | 5.30 to 6.30 | > 6.30 |
| CNc1cccc(-c2c[nH]c3ncc(Cl)cc23)n1 [Compound 298] |  |  | 5.30 to 6.30 | 5.30 to 6.30 |
| O=C(c1cccc(-c2c[nH]c3ncc(-c4cc(Cl)cc(Cl)c4)cc23)c1)N1CCOCC1 [Compound 225] |  |  | 5.30 to 6.30 | 5.30 to 6.30 |
| CCOc1cnc2[nH]cc(-c3cccc(N4C[C@@H](C)N(C(C)=O)[C@@H](C)C4)n3)c2c1 [Compound 205] | > 6.30 |  | 5.30 to 6.30 |  |
| C[C@H](Nc1nc(-c2c[nH]c3ncc(Cl)cc23)ncc1F)C(=O)O [Compound 360] |  |  | 5.30 to 6.30 | 5.30 to 6.30 |
| CCNC(=O)[C@H](C)Nc1nc(-c2c[nH]c3ncc(Cl)cc23)ncc1F [Compound 367] |  |  | 5.30 to 6.30 | > 6.30 |
| Fc1ccc(-c2cnc3[nH]cc(-c4ccc(F)cc4)c3c2)cc1 [Compound 223] |  |  | 5.30 to 6.30 | 5.30 to 6.30 |
| CN(Cc1ccccc1)c1cccc(-c2c[nH]c3ncc(Cl)cc23)n1 [Compound 274] |  |  | 5.30 to 6.30 | > 6.30 |
| Cc1ccc(CNc2cccc(-c3c[nH]c4ncc(-c5ccccc5)cc34)n2)cc1 [Compound 262] |  |  | 5.30 to 6.30 | 5.30 to 6.30 |
